Experimental data taken from patent US6376426B1, “Herbicidal 3-(heterocycl-1-yl)-uracils” (BASF Aktiengesellschaft, priority 1999, dated 2002).

Experiments:
Format in all cases: in vivo
Ipomoea hederacea [1] = assay: Pre-emergence herbicidal test, IPOHE; set-up: key: A rating 0 indicates growth as untreated control; a rating 9 indicates death; settings: 0-9 scale, 21 days after spraying
Galium aparine = assay: Pre-emergence herbicidal test, GALAP; set-up: key to herbicidal effect (0-9 scale) GALAP / herbicidal rating GALAP: A rating 0 indicates growth as untreated control; a rating 9 indicates death; settings: for herbicidal rating GALAP: PRE, 0-9 scale, 21 days after spraying
Stellaria media = assay: Post-emergence herbicidal test, STEME; set-up: key to herbicidal effect (0-9 scale) STEME / herbicidal rating STEME: A rating 0 indicates growth as untreated control; a rating 9 indicates death; settings: for herbicidal rating STEME: POST, 0-9 scale, 21 days after spraying
Outline: (§1)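 Herbicidal effect is recorded on a linear 0-9 scale, where 0 means growth like untreated control and 9 means death, with one unit approximating 10% more effect.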

Zea mays [2] = assay: Post-emergence herbicidal test, ZEAMX; set-up: key: A rating 0 indicates growth as untreated control; a rating 9 indicates death; settings: 0-9 scale, 21 days after spraying
Outline: as §1

[3] = tested on: representative range of plants; assay: Herbicidal activity, pre- and post-emergence, overall; settings: both in pre- and post-emergence
Experimental: (§2) To evaluate their herbicidal activity, compounds according to the invention are tested using a representative range of plants:
(§3) The pre-emergence tests involve spraying a liquid formulation of the compound onto the soil in which the seeds of the plant species mentioned above has recently been sown.
The soil used in the tests is a prepared horticultural loam. The formulations used in the tests are prepared from solutions of the test compounds in acetone containing 0.4% by weight of an alkylphenol/ethylene oxide condensate available under the trade mark TRITON X-155. These acetone solutions are diluted with water and the resulting formulations applied at dosage levels corresponding to 1000 g and 250 g/ha of active material per hectare in a volume equivalent to 900 litres per hectare. In these tests untreated sown soil are used as controls.
These acetone solutions are diluted with water and the resulting formulations applied at dosage levels equivalent to about 1000, 800, 400, 250 or 100 g/ha per hectare of test compound per pot. After spraying, the plants are placed on greenhouse benches and are cared for in the usual manner, commensurate with conventional greenhouse practices.
(§4) The herbicidal effects of the test compounds are assessed visually twenty-one days after spraying the foliage and the soil and are recorded on a 0-9 scale. A rating 0 indicates growth as untreated control, a rating 9 indicates death. An increase of 1 unit on the linear scale approximates to a 10% increase in the level of effect.

Abutilon theophrasti [4] = assay: Pre-emergence herbicidal test, ABUTH; set-up: key to herbicidal effect (0-9 scale) ABUTH / herbicidal rating ABUTH: A rating 0 indicates growth as untreated control; a rating 9 indicates death; settings: for herbicidal rating ABUTH: PRE, 0-9 scale, 21 days after spraying
Alopecurus myosuroides [5] = assay: Post-emergence herbicidal test, ALOMY; set-up: key: A rating 0 indicates growth as untreated control; a rating 9 indicates death; settings: 0-9 scale, 21 days after spraying
Outline: (§5)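 Compounds in acetone solution were diluted with water and sprayed post-emergence onto foliage and soil at about 1000, 800, 400, 250 or 100 g/ha. Plants were kept on greenhouse benches under conventional care.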

Glycine max [6] = assay: Post-emergence herbicidal test, GLXMA; set-up: key: A rating 0 indicates growth as untreated control; a rating 9 indicates death; settings: 0-9 scale, 21 days after spraying
Experimental: as §2
(§6) […] After spraying, the plants are placed on greenhouse benches and are cared for in the usual manner, commensurate with conventional greenhouse practices.
as §4

[7] = tested on: representative range of plants; assay: Pre-emergence herbicidal test, summary over the plants tested; settings: 100 g/ha
Experimental: as §2, §3
(§7) The soil used in the tests is a prepared horticultural loam. The formulations used in the tests are prepared from solutions of the test compounds in acetone containing 0.4% by weight of an alkylphenol/ethylene oxide condensate available under the trade mark TRITON X-155. […] In these tests untreated sown soil are used as controls.
as §4

Zea mays [8] = assay: Pre-emergence herbicidal test, ZEAMX; set-up: key to herbicidal effect (0-9 scale) ZEAMX / herbicidal rating ZEAMX: A rating 0 indicates growth as untreated control; a rating 9 indicates death; settings: for herbicidal rating ZEAMX: PRE, 0-9 scale, 21 days after spraying
[9] = tested on: representative range of plants; assay: Post-emergence herbicidal test, summary over the plants tested; settings: 100 g/ha
Experimental: as §2, §6, §4

Abutilon theophrasti [10] = assay: Post-emergence herbicidal test, ABUTH; set-up: key to herbicidal effect (0-9 scale) ABUTH / herbicidal rating ABUTH: A rating 0 indicates growth as untreated control; a rating 9 indicates death; settings: for herbicidal rating ABUTH: POST, 0-9 scale, 21 days after spraying
Outline: as §1

Ipomoea hederacea [11] = assay: Post-emergence herbicidal test, IPOHE; set-up: key to herbicidal effect (0-9 scale) IPOHE / herbicidal rating IPOHE: A rating 0 indicates growth as untreated control; a rating 9 indicates death; settings: for herbicidal rating IPOHE: POST, 0-9 scale, 21 days after spraying
Outline: as §5

Setaria viridis [12] = assay: Pre-emergence herbicidal test, SETVI; set-up: key to herbicidal effect (0-9 scale) SETVI / herbicidal rating SETVI: A rating 0 indicates growth as untreated control; a rating 9 indicates death; settings: for herbicidal rating SETVI: PRE, 0-9 scale, 21 days after spraying
Setaria viridis [13] = assay: Post-emergence herbicidal test, SETVI; set-up: key to herbicidal effect (0-9 scale) SETVI / herbicidal rating SETVI: A rating 0 indicates growth as untreated control; a rating 9 indicates death; settings: POST, 0-9 scale, 21 days after spraying
Outline: as §1

Alopecurus myosuroides [14] = assay: Pre-emergence herbicidal test, ALOMY; set-up: key to herbicidal effect (0-9 scale) ALOMY / herbicidal rating ALOMY: A rating 0 indicates growth as untreated control; a rating 9 indicates death; settings: PRE, 0-9 scale, 21 days after spraying
Glycine max [15] = assay: Pre-emergence herbicidal test, GLXMA; set-up: key to herbicidal effect (0-9 scale) GLXMA / herbicidal rating GLXMA: A rating 0 indicates growth as untreated control; a rating 9 indicates death; settings: for herbicidal rating GLXMA: PRE, 0-9 scale, 21 days after spraying
Experimental: as §2, §3, §7, §4

## Cn1c(C(F)(F)F)cc(=O)n(-n2ccc3c(Cl)cccc32)c1=O [Example 169, 3-(4-Chloro-indol-1-yl)-1-methyl-6-trifluoromethylpyrimidine-2,4-dione]
Ipomoea hederacea [1]; 12.5 g/ha
  herbicidal rating IPOHE: 2
Ipomoea hederacea [1]; 25 g/ha
  herbicidal rating IPOHE: 4
Ipomoea hederacea [1]; 100 g/ha
  herbicidal rating IPOHE: 8
Ipomoea hederacea [1]; 400 g/ha
  herbicidal rating IPOHE: 9
Galium aparine; 12.5 g/ha
  herbicidal rating GALAP: 7
Galium aparine; 25 g/ha
  herbicidal rating GALAP: 8
Galium aparine; 100 g/ha
  herbicidal rating GALAP: 9
Galium aparine; 400 g/ha
  herbicidal rating GALAP: 9
Galium aparine; pre-emergence, 25 g/ha
  control of Galium: good control
Stellaria media; 25 g/ha
  herbicidal rating STEME: 8
Stellaria media; 100 g/ha
  herbicidal rating STEME: 9
Stellaria media; 400 g/ha
  herbicidal rating STEME: 9
Stellaria media; post-emergence, 12.5 g/ha
  control of Stellaria: excellent control
Zea mays [2]; 25 g/ha
  herbicidal rating ZEAMX: 0
Zea mays [2]; 100 g/ha
  herbicidal rating ZEAMX: 3
Zea mays [2]; 400 g/ha
  herbicidal rating ZEAMX: 5
[3]
  herbicidal performance: excellent performance
Abutilon theophrasti [4]; 12.5 g/ha
  herbicidal rating ABUTH: 5
Abutilon theophrasti [4]; 25 g/ha
  herbicidal rating ABUTH: 9
Abutilon theophrasti [4]; 100 g/ha
  herbicidal rating ABUTH: 9
Abutilon theophrasti [4]; 400 g/ha
  herbicidal rating ABUTH: 9
Abutilon theophrasti [4]; pre-emergence, 25 g/ha
  control of Abutilon: good control
Alopecurus myosuroides [5]; 25 g/ha
  herbicidal rating ALOMY: 2
Alopecurus myosuroides [5]; 100 g/ha
  herbicidal rating ALOMY: 6
Alopecurus myosuroides [5]; 400 g/ha
  herbicidal rating ALOMY: 9
Glycine max [6]; 25 g/ha
  herbicidal rating GLXMA: 5
Glycine max [6]; 100 g/ha
  herbicidal rating GLXMA: 7
Glycine max [6]; 400 g/ha
  herbicidal rating GLXMA: 9
[7]
  control of the weeds: all of the weeds except Alopecurus were well controlled
Zea mays [8]; 12.5 g/ha
  herbicidal rating ZEAMX: 0
Zea mays [8]; 25 g/ha
  herbicidal rating ZEAMX: 1
Zea mays [8]; 100 g/ha
  herbicidal rating ZEAMX: 3
Zea mays [8]; 400 g/ha
  herbicidal rating ZEAMX: 7
Zea mays [8]; pre-emergence, 25 g/ha
  selectivity in maize: Surprisingly good selectivity
[9]
  control of the weeds: good cross spectrum control on both broadleaf weeds and grasses
Abutilon theophrasti [10]; 25 g/ha
  herbicidal rating ABUTH: 9
Abutilon theophrasti [10]; 100 g/ha
  herbicidal rating ABUTH: 9
Abutilon theophrasti [10]; 400 g/ha
  herbicidal rating ABUTH: 9
Abutilon theophrasti [10]; post-emergence, 12.5 g/ha
  control of Abutilon: excellent control
Ipomoea hederacea [11]; 25 g/ha
  herbicidal rating IPOHE: 9
Ipomoea hederacea [11]; 100 g/ha
  herbicidal rating IPOHE: 9
Ipomoea hederacea [11]; 400 g/ha
  herbicidal rating IPOHE: 9
Ipomoea hederacea [11]; post-emergence, 12.5 g/ha
  control of Ipomoea: excellent control
Setaria viridis [12]; 12.5 g/ha
  herbicidal rating SETVI: 8
Setaria viridis [12]; 25 g/ha
  herbicidal rating SETVI: 9
Setaria viridis [12]; 100 g/ha
  herbicidal rating SETVI: 9
Setaria viridis [12]; 400 g/ha
  herbicidal rating SETVI: 9
Setaria viridis [12]; pre-emergence, 25 g/ha
  control of Setaria: good control
Setaria viridis [13]; 25 g/ha
  herbicidal rating SETVI: 6
Setaria viridis [13]; 100 g/ha
  herbicidal rating SETVI: 9
Setaria viridis [13]; 400 g/ha
  herbicidal rating SETVI: 9
Alopecurus myosuroides [14]; 12.5 g/ha
  herbicidal rating ALOMY: 2
Alopecurus myosuroides [14]; 25 g/ha
  herbicidal rating ALOMY: 5
Alopecurus myosuroides [14]; 100 g/ha
  herbicidal rating ALOMY: 7
Alopecurus myosuroides [14]; 400 g/ha
  herbicidal rating ALOMY: 9
Glycine max [15]; 12.5 g/ha
  herbicidal rating GLXMA: 0
Glycine max [15]; 25 g/ha
  herbicidal rating GLXMA: 0
Glycine max [15]; 100 g/ha
  herbicidal rating GLXMA: 3
Glycine max [15]; 400 g/ha
  herbicidal rating GLXMA: 5
Glycine max [15]; pre-emergence, 25 g/ha
  selectivity in soy beans: Surprisingly good selectivity
